Source: patent US12024531B2, “Immunoproteasome inhibitors” (Principia Biopharma Inc., priority 2017, dated 2024)

Tests used:
[1] = biological target: immunoproteasome LMP7/B5i subunit (Homo sapiens, UniProt P28062); experiment: Caliper-based proteasome enzymatic activity assay, LMP7; assay type: biochemical; conditions: human recombinant immunoproteasome 0.3 nM, FAM peptide substrate 1 μM, rt 3 h
[2] = biological target: constitutive proteasome β5c subunit (Homo sapiens, UniProt P28074); experiment: Caliper-based proteasome enzymatic activity assay, β5c; assay type: biochemical; conditions: human recombinant constitutive proteasome 0.3 nM, FAM peptide substrate 1 μM, rt 3 h
[3] = biological target: immunoproteasome LMP2 subunit (Homo sapiens, UniProt P28065); experiment: Caliper-based proteasome enzymatic activity assay, LMP2; assay type: biochemical; conditions: human recombinant immunoproteasome 0.3 nM, FAM peptide substrate 1 μM, rt 2 h
[4] = biological target: T1, PBMC LMP7 (Homo sapiens, UniProt P28062); experiment: Inhibition of proteasome activity in cells (Proteasome-Glo), PBMC/LMP7; assay type: cell-based; conditions: 2 h incubation at 37° C.
Experimental: (§1) The cell-based effects of a compound described herein on the immunoproteasome were determined by measuring inhibition of proteasome activity in cells using the Proteasome-Glo™ Cell-Based Reagent (Promega, Madison WI). The Proteasome-Glo™ assay contains a specific luminogenic proteasome substrate in a buffer optimized for cell permeabilization, proteasome activity, and luciferase activity. For the chymotrypsin-like activity (LMP7 and 05c), the peptide substrate is Suc-LLVY-aminoluciferin (Succinyl-leucine-leucine-valine-tyrosine-aminoluciferin). Cleavage of the substrate by proteasome results in luminescent signal which is proportional to the proteasome activity. The cell line THP-1 (a monocytic leukemia cell line enriched in immunoproteasome), the cell line HT-29 (a colorectal adenocarcinoma cell line enriched in constitutive proteasome), and primary human peripheral blood mononuclear cells (PBMC) were used to assess proteasome activity. Cells were seeded in a 96-well plate at 10,000 cells per well in RPMI 1640 high glucose medium with 10% fetal bovine serum (FBS). Compound dilutions were added to cells starting at a concentration of 5 uM and decreasing in tripling dilutions. The final DMSO concentration was 1%. The concentration range was adjusted as needed for compounds of different potencies. The cells treated with compounds were incubated for 2 h at 37° C. in 5% CO2. At the end of the 2 hour incubation period, cells were transferred to white 384 well assay plates. 20 uL of Proteasome-Glo™ Reagent was added to each well and incubated for 10 minutes at rt. The plate was read in the Analyst HT instrument (Molecular Devices, Sunnyvale, CA) using luminescence mode. The percent inhibition of activity was plotted as a function of log compound concentration. The IC50 was then calculated for each compound using Prism software from GraphPad Software Inc. (San Diego, CA).

[5] = biological target: T2, PBMC LMP2 (Homo sapiens, UniProt P28065); experiment: Inhibition of proteasome activity in cells (Proteasome-Glo), PBMC/LMP2; assay type: cell-based; conditions: 2 h incubation at 37° C.
Experimental: as §1

[6] = system: prostate PC-3 cell line; conditions: cited from earlier work
[7] = system: tumor growth; conditions: mouse; cited from earlier work
[8] = system: Th1/17 differentiation; conditions: cited from earlier work
[9] = system: production of proinflammatory cytokines (IL-6, TNF-α, IL-23); conditions: cited from earlier work
[10] = system: murine collagen-induced arthritis; conditions: mouse, in vivo; cited from earlier work
[11] = system: MRL/lpr lupus model; conditions: cited from earlier work
[12] = system: murine DSS-induced colitis model; conditions: cited from earlier work
[13] = system: Hashimoto's thyroiditis model; conditions: mouse, in vivo; cited from earlier work
[14] = system: multiple myeloma cell lines and primary patient tumor cells; conditions: cited from earlier work
[15] = biological target: T3, HT29 β5c (Homo sapiens, UniProt P28074); experiment: Inhibition of proteasome activity in cells (Proteasome-Glo), HT29/β5c; assay type: cell-based; conditions: HT-29 cells, 2 h incubation at 37° C.
Experimental: as §1, with “Compound dilutions were added to cells starting at a concentration of 5 uM and decreasing in tripling dilutions. The final DMSO concentration was 1%. The concentration range was adjusted as needed for compounds of different potencies. The cells treated with compounds were incubated for 2 h at 37° C. in 5% CO2. At the end of the 2 hour incubation period, cells were transferred to white 384 well assay plates. 20 uL of Proteasome-Glo™ Reagent was added to each well and incubated for 10 minutes at rt.” left out, “The percent inhibition of activity was plotted as a function of log compound concentration.” left out

[16] = biological target: T1, PBMC LMP7; experiment: Durability of binding in cells (wash-out, Proteasome-Glo), PBMC LMP7; assay type: cell-based
Experimental: (§2) The durability of binding of proteasome inhibitors was assessed in cells using wash-out assays and the Proteasome-Glo™ Reagent kit. THP-1 cells, HT-29 cells, or PBMC were incubated with an 8-fold dilution series of inhibitor for 2 h. Following 2 h of incubation, cells were washed using 3 occasions of centrifugation followed by resuspension in culture medium. Following inhibitor washout, cells were returned to culture for either 30 minutes, 4 h, or 18 h. Cells were then transferred to white 384 plates, and 20 uL of Proteasome-Glo™ Reagent was added to each well for 10 minutes. Plates were then read on an Analyst HT plate reader using luminescence mode. The percent inhibition of activity was plotted as a function of log compound concentration. The IC50 was then calculated for each compound using Prism software from GraphPad.

[17] = biological target: T3, HT29 β5c; experiment: Durability of binding in cells (wash-out, Proteasome-Glo), HT29 β5c; assay type: cell-based
Experimental: as §2

[18] = biological target: T2, PBMC LMP2; experiment: Durability of binding in cells (wash-out, Proteasome-Glo), PBMC LMP2; assay type: cell-based
Experimental: as §2

SMILES	IC50 [1]	IC50 [2]	IC50 [3]	IC50 [4]	IC50 [5]	other results
CC(C)(C)NC(=O)C(C#N)=Cc1cccc(OCCC(=O)N[C@@H](CCc2ccccc2)B(O)O)c1 [Example 11, (R)-1-(3-(3-(3-(tert-butylamino)-2-cyano-3-oxoprop-1-enyl)phenoxy)propanamido)-3-phenylpropylboronic Acid]	0.002 µM	0.31 µM	> 5 µM	0.003 µM	> 5 µM	
CCCCCCC(=O)N[C@@H](C)C(=O)N[C@@H](CC(C)C)C(=O)[C@@]1(CO[Si](C)(C)C(C)(C)C)CO1 [UK-101]						apoptosis of prostate PC-3 cell line in vitro [6]: induced apoptosis; tumor growth in vivo [7]: significantly suppressed tumor growth
COc1ccc(C[C@H](NC(=O)[C@H](C)NC(=O)CN2CCOCC2)C(=O)N[C@@H](Cc2ccccc2)C(=O)[C@@]2(C)CO2)cc1 [PR-957]						human and mouse Th1/17 differentiation [8]: potently block; B cell effector functions and production of proinflammatory cytokines (IL-6, TNF-α, IL-23) [9]: potently block; disease activity in murine collagen-induced arthritis [10]: significantly inhibit disease activity; plasma cell numbers and anti-dsDNA IgG levels [11]: reduced plasma cell numbers and anti-dsDNA IgG levels; inflammation and tissue destruction [12]: reduced inflammation and tissue destruction; efficacy in autoantibody-driven Hashimoto's thyroiditis model [13]: efficacious
CC1=C(C(=O)N[C@H](C)C(=O)N[C@@H](Cc2c[nH]c3ccccc23)C(=O)N[C@@H](Cc2ccccc2)C(=O)[C@@]2(C)CO2)Cc2ccccc21 [PR-924]						growth of multiple myeloma cell lines and primary patient tumor cells [14]: inhibit growth
N#CC(=Cc1cccc(OCCC(=O)N[C@@H](Cc2ccccc2)B(O)O)c1)c1ccccn1 [Example 6, (R)-(1-(3-(3-(2-cyano-2-(pyridin-2-yl)vinyl)phenoxy)propanamido)-2-phenylethyl)boronic Acid]	0.008 µM	0.089 µM	0.084 µM	0.007 µM	> 5 µM	
CC(C)(C)NC(=O)C(C#N)=Cc1cccc(OCCC(=O)N[C@@H](Cc2ccccc2)B(O)O)c1 [Example 2, (R)-(1-(3-(3-(3-(tert-butylamino)-2-cyano-3-oxoprop-1-en-1-yl)phenoxy)propanamido)-2-phenylethyl)boronic Acid]	0.003 µM	0.066 µM	0.16 µM	0.005 µM	3.82 µM	IC50 [15]: 0.073 µM; IC50 ([16]; 30 min after inhibitor washout): 0.005 µM; IC50 ([16]; 4 hr after inhibitor washout): 0.01 µM; IC50 ([16]; 18 hr after inhibitor washout): 0.126 µM; IC50 ([17]; 30 min after inhibitor washout): 0.109 µM; IC50 ([17]; 4 hr after inhibitor washout): > 5 µM; IC50 ([17]; 18 hr after inhibitor washout): > 5 µM; IC50 ([18]; 4 hr after inhibitor washout): > 5 µM; IC50 ([18]; 18 hr after inhibitor washout): > 5 µM
CN(C)C(=O)C(C#N)=Cc1cccc(COC(=O)N[C@@H](Cc2ccccc2)B(O)O)c1 [Example 15, (R)-(1-((((3-(2-cyano-3-(dimethylamino)-3-oxoprop-1-en-1-yl)benzyl)oxy)carbonyl)amino)-2-phenylethyl)boronic Acid]	0.008 µM	3.24 µM	2.92 µM	0.018 µM	> 5 µM	

Now from value to compound, other results behind:

IC50 [1]	IC50 [2]	IC50 [3]	IC50 [4]	IC50 [5]	SMILES	other results
0.0002 µM	0.004 µM	3.24 µM	0.002 µM	0.51 µM	CC(C)(C)NC(=O)C(C#N)=Cc1cccc(OCCC(=O)N[C@@H](Cc2coc3ccccc23)B(O)O)c1 [Example 14, (R)-(2-(benzofuran-3-yl)-1-(3-(3-(3-(tert-butylamino)-2-cyano-3-oxoprop-1-en-1-yl)phenoxy)propanamido)ethyl)boronic Acid]	
0.0103 µM	> 5 µM	> 5 µM	0.044 µM		CCN(CC)C(=O)C(C#N)=Cc1cccc(CCOC(=O)N[C@@H](Cc2ccccc2)B(O)O)c1 [Example 52, (R)-(1-(((3-(2-cyano-3-(diethylamino)-3-oxoprop-1-en-1-yl)phenethoxy)carbonyl)amino)-2-phenylethyl)boronic Acid]	
0.003 µM	0.032 µM	0.12 µM	0.034 µM	> 5 µM	CNC(=O)C(C#N)=Cc1cccc(OCCC(=O)N[C@@H](Cc2ccccc2)B(O)O)c1 [Example 20, (R)-(1-(3-(3-(2-cyano-3-(methylamino)-3-oxoprop-1-en-1-yl)phenoxy)propanamido)-2-phenylethyl)boronic Acid]	
0.011 µM	0.043 µM	0.17 µM	0.067 µM	> 5 µM	CN1CCN(C(=O)C(C#N)=Cc2cccc(OCCC(=O)N[C@@H](Cc3ccccc3)B(O)O)c2)CC1 [Example 19, (R)-(1-(3-(3-(2-cyano-3-(4-methylpiperazin-1-yl)-3-oxoprop-1-en-1-yl)phenoxy)propanamido)-2-phenylethyl)boronic Acid]	
0.0004 µM	> 5 µM	2.32 µM	0.002 µM		N#CC(=Cc1cccc(CCOC(=O)N[C@@H](Cc2ccccc2)B(O)O)c1)C(=O)N1C2CCC1COC2 [Example 67, ((1R)-1-(((3-(3-(3-oxa-8-azabicyclo[3.2.1]octan-8-yl)-2-cyano-3-oxoprop-1-en-1-yl)phenethoxy)carbonyl)amino)-2-phenylethyl)boronic Acid]	
0.008 µM	1.31 µM	> 5 µM	0.009 µM	> 5 µM	CN(C)C(=O)C(C#N)=Cc1cccc(CCOC(=O)N[C@@H](Cc2ccccc2)B(O)O)c1 [Example 17, (R)-(1-(((3-(2-cyano-3-(dimethylamino)-3-oxoprop-1-en-1-yl)phenethoxy)carbonyl)amino)-2-phenylethyl)boronic Acid]	
